Data taken from patent publication US6593454B2, “Methods for identifying inhibitors of methionine aminopeptidases” (Saint Louis University, priority 1999, dated 2003).

Columns and labels:
type 2 MAP = type 2 MAP (Homo sapiens, UniProt P50579); assay: Coupled MAP/dipeptidyl peptidase IV assay, release of p-nitroanilide at 405 nm, type 2 MAP inhibition; format: biochemical
Protocol: (§1) MAP activity was next determined by monitoring the release of p-nitroanilide in a microtiter format. Purified type 1 MAP or type 2 MAP (0.6 μg) and/or 0.001 unit of dipeptidyl peptidase IV was added in 47 μl of buffer H (10 mM Hepes, pH 7.4, 10% glycerol), containing 0.1 M KCl and 0.1 mM of Co^2+ in wells of a 96-well microtiter plate. After incubating at 37° C. for 5 min, 2 mM of Met-Gly-Pro-p-nitroanilide was added to the mixture to start the reaction. A microtiter plate reader, set at 405 nm to detect released p-nitroanilide, was used to record the progress of the reactions. […] These curves are highly reproducible and linear, with correlation coefficients (r^2)>0.98.
(§2) After incubating the inhibitor with MAP solutions at 37° C. for 10 min, 2 mM of Met-Gly-Pro-p-nitroanilide was added to start the reaction, and the release of p-nitroanilide was monitored with a microtiter plate reader at 405 nm as described above. The effect of fumigillin on dipeptidyl peptidase IV activity was also tested by using Gly-Pro-p-nitroanilide as the substrate.

type 1 MAP = type 1 MAP (Saccharomyces cerevisiae, UniProt Q01662); assay: Coupled MAP/dipeptidyl peptidase IV assay, release of p-nitroanilide at 405 nm, type 1 MAP inhibition; format: biochemical, yeast
Sequence of type 1 MAP (Q01662 whole entry): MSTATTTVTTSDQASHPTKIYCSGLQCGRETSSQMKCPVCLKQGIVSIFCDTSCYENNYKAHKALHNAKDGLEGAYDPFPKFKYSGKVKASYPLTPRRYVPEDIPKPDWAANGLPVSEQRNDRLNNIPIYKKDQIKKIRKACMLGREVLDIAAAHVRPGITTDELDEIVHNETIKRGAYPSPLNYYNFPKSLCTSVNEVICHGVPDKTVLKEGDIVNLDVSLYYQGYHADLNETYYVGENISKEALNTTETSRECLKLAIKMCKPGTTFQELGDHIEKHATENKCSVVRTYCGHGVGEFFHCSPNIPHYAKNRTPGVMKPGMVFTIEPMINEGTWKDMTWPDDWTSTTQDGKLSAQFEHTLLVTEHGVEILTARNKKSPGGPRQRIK
Protocol: as §1, §2

dipeptidyl peptidase IV = dipeptidyl peptidase IV (Homo sapiens, UniProt P27487); assay: Dipeptidyl peptidase IV control assay with Gly-Pro-p-nitroanilide as substrate; format: biochemical
Sequence of dipeptidyl peptidase IV (P27487 whole entry, species assumed): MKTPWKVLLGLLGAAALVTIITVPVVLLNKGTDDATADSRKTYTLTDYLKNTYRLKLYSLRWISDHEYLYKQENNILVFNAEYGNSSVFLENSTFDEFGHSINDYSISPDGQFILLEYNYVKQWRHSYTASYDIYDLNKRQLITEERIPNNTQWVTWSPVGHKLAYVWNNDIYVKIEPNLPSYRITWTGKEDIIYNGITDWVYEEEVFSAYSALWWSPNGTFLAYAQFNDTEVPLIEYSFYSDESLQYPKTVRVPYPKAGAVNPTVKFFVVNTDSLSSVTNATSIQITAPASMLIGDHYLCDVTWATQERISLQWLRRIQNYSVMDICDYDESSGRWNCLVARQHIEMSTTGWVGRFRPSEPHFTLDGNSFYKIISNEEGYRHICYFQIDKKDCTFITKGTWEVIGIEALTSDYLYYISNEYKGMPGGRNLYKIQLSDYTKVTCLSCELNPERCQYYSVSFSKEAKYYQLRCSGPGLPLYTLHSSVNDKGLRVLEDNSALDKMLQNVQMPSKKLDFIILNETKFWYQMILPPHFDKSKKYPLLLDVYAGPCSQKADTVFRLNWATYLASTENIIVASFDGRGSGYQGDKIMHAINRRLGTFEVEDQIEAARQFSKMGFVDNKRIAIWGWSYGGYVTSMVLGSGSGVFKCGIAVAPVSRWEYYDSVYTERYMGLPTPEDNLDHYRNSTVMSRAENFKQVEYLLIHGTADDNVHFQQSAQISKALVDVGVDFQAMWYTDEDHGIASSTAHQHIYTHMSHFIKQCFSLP
Protocol: as §1, §2

[1] = FIG. 3 legend, dipeptidyl peptidase IV and Met-Gly-Pro-p-nitroanilide, no concentration stated

Sequence of type 2 MAP (P50579 whole entry): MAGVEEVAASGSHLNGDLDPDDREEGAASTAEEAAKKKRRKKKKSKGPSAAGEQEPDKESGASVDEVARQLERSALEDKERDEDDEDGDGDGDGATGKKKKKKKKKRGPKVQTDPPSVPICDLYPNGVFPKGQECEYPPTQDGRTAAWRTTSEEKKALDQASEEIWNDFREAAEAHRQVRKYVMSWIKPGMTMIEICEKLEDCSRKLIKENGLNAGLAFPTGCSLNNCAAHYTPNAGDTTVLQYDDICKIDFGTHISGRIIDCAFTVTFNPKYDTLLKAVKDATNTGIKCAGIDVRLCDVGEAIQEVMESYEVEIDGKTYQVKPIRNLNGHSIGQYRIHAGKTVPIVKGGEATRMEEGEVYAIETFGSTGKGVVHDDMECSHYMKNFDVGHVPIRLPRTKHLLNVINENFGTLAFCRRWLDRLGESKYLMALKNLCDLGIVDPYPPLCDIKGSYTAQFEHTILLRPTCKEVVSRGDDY

Compound: CO[C@@H]1[C@H](OC(=O)/C=C/C=C/C=C/C=C/C(=O)O)CC[C@]2(CO2)[C@H]1[C@@]1(C)O[C@@H]1CC=C(C)C [fumagillin]
- type 2 MAP activity (type 2 MAP; 20 nM inhibitor, 10 min preincubation at 37° C., 2 mM Met-Gly-Pro-p-nitroanilide, FIG. 3): completely inhibited
- release of p-nitroanilide when type 2 MAP was used (type 2 MAP; [1]): strongly inhibited
- type 1 MAP activity (type 1 MAP; 50 nM inhibitor, 10 min preincubation at 37° C., 2 mM Met-Gly-Pro-p-nitroanilide, FIG. 3): remained unaffected
- release of p-nitroanilide when type 1 MAP was used (type 1 MAP; [1]): not
- dipeptidyl peptidase IV activity (dipeptidyl peptidase IV; 50 nM inhibitor, Gly-Pro-p-nitroanilide as substrate, FIG. 3): remained unaffected
- release of p-nitroanilide when dipeptidyl peptidase IV was used with Gly-Pro-p-nitroanilide (dipeptidyl peptidase IV; FIG. 3 legend, no concentration stated): not
